The results in this text go back to patent publication US5595760A, “Sustained release of peptides from pharmaceutical compositions” (Delab, priority 1995, dated 1997).

A short description of data set [1]: Solubility of the peptide salt in water. The data set is classed as physicochemical. The note with it: pH 7.0, 25° C. The source says: As used herein, a "gelable peptide salt" is a peptide salt which will form a gel upon contact with bodily fluids. Whether a peptide salt is "gelable," and will have the desired biological properties, can be determined by testing the peptide salt in the in vitro and in vivo assays described below. The term "peptide" means a natural or synthetic molecule comprising two or more amino acids linked by the carboxyl group of one amino acid and the amino group of another. Thus, the term includes both polypeptides and proteins. A "soluble" peptide salt is one having a solubility of 0.1 mg/ml, and preferably 1.0 mg/ml, in water at a pH of 7.0 and a temperature of 25° C.
A solution of the peptide composition is undesirable, because such a solution, once injected, will disperse and not form the sustained-release gel of the invention. Thus, the amount of water is carefully selected to be less than that required to dissolve a specific amount of the peptide composition For example, at 25° C., pH 7.0, 1.0 ml or less of water is required when mixed with 26 mg of the acetate salt of SOMATULINE™ to avoid the formation of a solution. By using an amount of water that is less than 50 percent, and preferably less than 20 or 10 percent, of the amount of water required to dissolve a peptide salt, a semisolid or paste-like suspension, rather than a solution, is ensured.

Data set [2] can be described thus: In vivo blood level release profile in dogs (plasma RIA). Also on record: species or system dog. The note with it: gels at sufficient dosages. As for the experimental part:
Once a particular peptide salt is found to gel in any of the in vitro assays described above, an in vivo assay can be used to determine the suitability of that peptide salt for therapeutic use in animals or humans. A blood level release profile for a particular peptide salt can be determined by injecting the peptide salt into an animal, e.g., a Sprague Dawley rat or dog, and testing blood samples taken at specific time intervals, e.g., hourly intervals over 1 to 5 days, or 12 or 24 hour intervals over 5 to 45 days, for the concentration of the peptide. The suitability of a particular peptide gel, or a peptide/carrier gel, for therapeutic delivery of the peptide can thus be determined.
Specifically, animals are anaesthetized with pentobarbital (60 mg/kg i.p. for rats), and a jugular vein is cannulated for blood sampling. A test peptide semisolid suspension or solid composition (or standard solution for comparison purposes), e.g., of SOMATULINE™, is injected subcutaneously at a specific dosage, e.g., 1.0, 3.0, or 6.0 mg/kg of SOMATULINE™. […] The amount of peptide in the plasma samples is determined by a standard radioimmunoassay (RIA) technique that allows a direct measurement without extraction of the peptide from the rat plasma. […]

One may read the solubility as how much of the substance goes into solution per volume. On to `CC(C)[C@@H]1NC(=O)[C@H](CCCCN)NC(=O)[C@@H](Cc2c[nH]c3ccccc23)NC(=O)[C@H](Cc2ccc(O)cc2)NC(=O)[C@@H](NC(=O)[C@H](N)Cc2ccc3ccccc3c2)CSSC[C@@H](C(=O)N[C@H](C(N)=O)[C@@H](C)O)NC1=O` [SOMATULINE™], for which the solubility in data set [1] came to 26.0 mg/mL. For the same molecule, the “duration of sustained release of at least 1.0 ng/ml of the peptide in the blood” value in data set [2] is “over one month”.
